Experimental findings from patent US20110230472A1, “RING-FUSED AZOLE DERIVATIVE HAVING PI3K-INHIBITING ACTIVITY” (Shionogi & Co., Ltd., priority 2008, published 2011) are described below.

One series concerns the target T1, CYP2C19 (Homo sapiens, UniProt P33261).
T1 construct: enzyme: pooled human liver microsome 0.2 mg protein/mL; from tissue; host or cells: pooled human liver microsome
Put plainly: CYP inhibition test, pooled human liver microsome, CYP2C19. Format: in vitro ADME. To be noted: 4′-hydroxylation of mephenyloin. Background: Liver microsomes are a subcellular fraction often used to study metabolism.

A further series deals with T2, CYP2D6 (Homo sapiens, UniProt P10635).
T2 construct: enzyme: pooled human liver microsome 0.2 mg protein/mL; from tissue; host or cells: pooled human liver microsome
T2 sequence (P10635 whole entry): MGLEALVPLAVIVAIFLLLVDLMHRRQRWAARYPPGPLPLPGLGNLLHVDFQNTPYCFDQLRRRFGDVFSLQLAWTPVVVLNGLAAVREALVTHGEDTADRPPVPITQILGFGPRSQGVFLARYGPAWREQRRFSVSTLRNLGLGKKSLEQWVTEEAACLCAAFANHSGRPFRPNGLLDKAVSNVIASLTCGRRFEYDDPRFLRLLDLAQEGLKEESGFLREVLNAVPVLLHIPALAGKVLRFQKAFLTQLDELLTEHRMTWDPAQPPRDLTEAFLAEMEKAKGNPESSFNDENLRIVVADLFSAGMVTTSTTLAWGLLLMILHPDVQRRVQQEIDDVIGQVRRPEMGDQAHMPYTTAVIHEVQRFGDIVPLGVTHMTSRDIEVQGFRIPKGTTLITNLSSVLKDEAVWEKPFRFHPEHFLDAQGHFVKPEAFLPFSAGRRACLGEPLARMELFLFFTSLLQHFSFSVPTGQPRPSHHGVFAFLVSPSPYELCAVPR
The experiment in a line: CYP inhibition test, pooled human liver microsome, CYP2D6. In kind it is in vitro ADME. To be noted: O-demethylation of dextromethorphan. The gist of the method: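 Pooled human liver microsomes (0.2 mg protein/mL) in 50 mmol/L Hepes with NADPH, 15 min at 37° C; test drug at 1, 5, 10, 20 μmol/L. Substrates: 0.5 μmol/L ethoxyresorufin (1A2, resorufin by fluorescence), 100 μmol/L tolbutamide (2C9), 5 μmol/L dextromethorphan (2D6), 1 μmol/L terfenadine (3A4), metabolites by LC/MS/MS. IC50 from remaining activity vs DMSO control, logistic model.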

Another series in a line: Solubility test. In kind it is physicochemical. To be noted: kinetic from dmso stock; artificial intestinal juice pH 6.8, 1% DMSO, 25° C. for 16 hours. The gist of the method: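 Kinetic solubility with 1% DMSO: compound from 10 mmol/L DMSO stock spiked into pH 6.8 phosphate artificial intestinal juice, held 16 h at 25 °C, then suction-filtered. Filtrate diluted twofold in methanol/water (1/1) and quantified by HPLC or LC/MS/MS via absolute calibration.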

Series [1] has as its target T3, human ether-a-go-go related gene (hERG) channel (Homo sapiens, UniProt Q12809).
T3 construct: expressed in transfected cells; host or cells: HEK293
The experiment in a line: hERG test, whole-cell patch-clamp. To be noted: HEK293 cell expressing hERG; applied for 10 minutes; concentration not given. Format: cell-based. The source says:
For the purpose of risk evaluation of QT interval extension of electrocardiogram, the activity on delayed rectification K^+ current (IKr), which plays an important role in a cardiac ventricle repolarization process, was examined using the HEK293 cell that was made to express human ether-a-go-go related gene (hERG) channel.
Using an automatic patch-clamp system (PatchXpress 7000A, Axon Instruments Inc.), by a whole-cell patch-clamp method, after the cell was maintained at a membrane potential of −80 mV, IKr induced upon applying depolarizing stimulation of +50 mV for 2 seconds and further applying repolarizing stimulation of −50 mV for 2 seconds was recorded. After generated electric current became stable, a test substance dissolved at an intended concentration in extracellular fluid (137 mmol/L NaCl, 4 mmol/L KCl, 1.8 mmol/L CaCl2.2H2O, 1 mmol/L MgCl2.6H2O, 10 mmol/L glucose, 10 mmol/L HEPES (4-(2-hydroxyethyl)-1-piperazineethanesulfonic acid), pH=7.4) was applied to the cell for 10 minutes under room temperature condition. From the obtained IKr, the absolute value of the maximum tail current was measured using analysis software (DataXpress ver. 1, Molecular Devices Corporation) and the value of the electric current in a maintained membrane potential as baseline. Moreover, an inhibition ratio for the maximum tail current prior to the application of the test substance was calculated and then compared with a group of media-application (0.1% dimethylsulfoxide solution) to evaluate influence of the test substance on IKr.

T3 sequence (Q12809 whole entry): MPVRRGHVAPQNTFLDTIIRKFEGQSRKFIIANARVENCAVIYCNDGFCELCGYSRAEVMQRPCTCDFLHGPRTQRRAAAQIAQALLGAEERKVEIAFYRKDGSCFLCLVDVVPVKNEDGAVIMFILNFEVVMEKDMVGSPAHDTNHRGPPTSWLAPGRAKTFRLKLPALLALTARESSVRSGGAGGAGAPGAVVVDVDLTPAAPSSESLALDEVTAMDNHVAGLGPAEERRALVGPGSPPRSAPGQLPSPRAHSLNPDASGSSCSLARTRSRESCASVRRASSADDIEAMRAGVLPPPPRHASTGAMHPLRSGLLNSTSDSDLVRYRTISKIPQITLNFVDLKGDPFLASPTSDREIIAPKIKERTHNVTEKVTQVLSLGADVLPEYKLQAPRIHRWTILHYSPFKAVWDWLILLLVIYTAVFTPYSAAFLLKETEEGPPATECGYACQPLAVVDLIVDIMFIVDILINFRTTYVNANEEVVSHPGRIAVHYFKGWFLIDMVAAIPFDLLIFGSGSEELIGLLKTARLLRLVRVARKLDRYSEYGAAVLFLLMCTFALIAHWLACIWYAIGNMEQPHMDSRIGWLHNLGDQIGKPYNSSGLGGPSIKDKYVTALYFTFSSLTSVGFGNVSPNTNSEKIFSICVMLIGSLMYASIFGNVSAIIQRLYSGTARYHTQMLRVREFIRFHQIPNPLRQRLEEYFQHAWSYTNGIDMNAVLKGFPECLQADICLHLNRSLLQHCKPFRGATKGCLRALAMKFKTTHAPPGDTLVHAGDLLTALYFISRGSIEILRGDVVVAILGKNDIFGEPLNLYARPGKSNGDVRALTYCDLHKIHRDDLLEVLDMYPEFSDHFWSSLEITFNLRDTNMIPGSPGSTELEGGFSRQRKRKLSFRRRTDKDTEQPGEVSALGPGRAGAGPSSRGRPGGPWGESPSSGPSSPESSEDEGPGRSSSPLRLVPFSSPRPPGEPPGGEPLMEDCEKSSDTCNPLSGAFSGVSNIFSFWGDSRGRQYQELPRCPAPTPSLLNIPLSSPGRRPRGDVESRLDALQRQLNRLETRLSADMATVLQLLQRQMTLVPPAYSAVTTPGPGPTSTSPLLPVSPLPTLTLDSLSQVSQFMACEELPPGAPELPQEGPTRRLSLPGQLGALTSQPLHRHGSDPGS
T1 sequence (P33261 whole entry): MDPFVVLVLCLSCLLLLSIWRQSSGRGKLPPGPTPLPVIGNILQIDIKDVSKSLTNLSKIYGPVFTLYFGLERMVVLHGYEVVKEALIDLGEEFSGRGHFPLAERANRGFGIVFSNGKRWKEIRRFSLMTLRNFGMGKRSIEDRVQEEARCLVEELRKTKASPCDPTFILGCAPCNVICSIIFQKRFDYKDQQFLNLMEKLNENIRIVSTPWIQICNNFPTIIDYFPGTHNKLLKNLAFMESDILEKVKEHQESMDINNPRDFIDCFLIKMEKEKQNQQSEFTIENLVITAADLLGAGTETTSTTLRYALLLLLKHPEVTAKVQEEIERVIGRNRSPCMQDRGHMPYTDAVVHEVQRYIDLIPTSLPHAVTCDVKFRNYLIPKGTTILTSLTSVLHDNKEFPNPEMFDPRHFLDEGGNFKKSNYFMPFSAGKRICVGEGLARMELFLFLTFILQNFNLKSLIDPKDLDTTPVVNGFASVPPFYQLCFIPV

As for `CNC(=O)Nc1cc2n(n1)CCN2c1cc(C(=O)N2CCOCC2)cc(-c2ccc(N)nc2)c1` [Compound I-200], the IC50 against CYP2C19 and at CYP2D6 was more than 20 µM in each case. In “Solubility test”, the solubility (commonly the dissolved amount per volume that the medium holds) at 16 h is more than 50 µM. The “inhibition ratio for the maximum tail current (IKr)” value (shortened to “inhibition ratio”) in series [1] turned out to be 7.3%.
As for `COc1cc(N2CCc3nc(NC(=O)NCc4cc(=O)[nH]o4)sc3C2)nc(OC)n1` [Compound I-279], the half-inhibitory concentration (IC50) at CYP2C19 and at CYP2D6 was more than 20 µM each time. For the same compound, in series [1], the “inhibition ratio” value was 5%.
With `CNC(=O)Nc1cc2n(n1)CCN2c1ccc(S(C)(=O)=O)cc1` [Compound I-89], the IC50 at CYP2C19 and against CYP2D6 was more than 20 µM throughout. The “inhibition ratio” value in series [1] was less than 0.5%.
Consider `CN1CCc2cc(N3CCn4nc(NC(=O)c5ccco5)cc43)ccc2C1=O` [Compound I-358], for which the IC50 against CYP2C19 and against CYP2D6 was more than 20 µM throughout. Further, the solubility at 16 h in “Solubility test” was more than 50 µM.
In the case of `CNC(=O)Nc1nc2c(s1)CN(c1cc(Cl)nc(N)n1)CC2` [Compound I-118], the concentration for half-maximal inhibition (IC50) against CYP2C19 and on CYP2D6 was more than 20 µM in each case. The compound also showed a solubility at 16 h in the series “Solubility test” of more than 50 µM. Moreover, the “inhibition ratio” value in series [1] is recorded as 8.4%.
For `CNC(=O)Nc1nc2c(s1)CN(c1ccnc(OC)n1)CC2` [Compound I-142], the IC50 against CYP2C19 and against CYP2D6 was more than 20 µM in each case. The compound further showed a solubility at 16 h in the series “Solubility test” of more than 50 µM.
`COc1cc(N2CCc3nc(NC(=O)NCC(=O)O)sc3C2)nc(OC)n1` [Compound I-208]: the IC50 at CYP2C19 and at CYP2D6 was more than 20 µM each time. Further, the solubility at 16 h in “Solubility test” was more than 50 µM. Moreover, the “inhibition ratio” value in series [1] came out at 2.7%.
For the compound `CN1CCc2cc(N3CCn4nc(NC(=O)c5cccnc5)cc43)ccc2C1=O` [Compound I-347], the concentration for half-maximal inhibition (IC50) against CYP2C19 and on CYP2D6 was more than 20 µM in each case. Also, the solubility at 16 h in the series “Solubility test” is more than 50 µM. Moreover, the “inhibition ratio” value in series [1] is reported as 6%.
